Results as given in ChEMBL document CHEMBL1201862, “PubChem BioAssay data set” (2004).
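Each compound was tested at five concentrations against cells in 96-well plates for 48 hours. Here, GI50 denotes the concentration required for 50% inhibition of growth.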 Activity calls are given as the source filed them. No stated cut-off is given here; in the data, active = GI50 up to about 1.1 µM and inactive = higher.

What was measured:
Assay in all cases: DTP human tumour cell line panel, 48 h
EKVX = test system: EKVX
CAKI-1 = test system: CAKI-1
SNB-19 = test system: SNB-19
IGROV-1 = test system: IGROV-1
SW-620 = test system: SW-620
HL-60 = test system: HL-60
HCC 2998 = test system: HCC 2998
SK-OV-3 = test system: SK-OV-3
SNB-78 = test system: SNB-78
UACC-257 = test system: UACC-257
U-251 = test system: U-251
SNB-75 = test system: SNB-75
HOP-62 = test system: HOP-62
NCI-H226 = test system: NCI-H226
COLO 205 = test system: COLO 205
DMS-273 = test system: DMS-273
DMS-114 = test system: DMS-114
OVCAR-3 = test system: OVCAR-3
SF-295 = test system: SF-295
UACC-62 = test system: UACC-62
MOLT-4 = test system: MOLT-4
DLD-1 = test system: DLD-1
OVCAR-4 = test system: OVCAR-4
MCF7 = test system: MCF7
NCI/ADR-RES = test system: NCI/ADR-RES
CCRF-CEM = test system: CCRF-CEM
HT-29 = test system: HT-29
HOP-92 = test system: HOP-92
NCI-H522 = test system: NCI-H522
XF498 = test system: XF498
HOP-18 = test system: HOP-18
NCI-H460 = test system: NCI-H460
A549 = test system: A549
HCT-116 = test system: HCT-116
OVCAR-8 = test system: OVCAR-8
NCI-H23 = test system: NCI-H23
SN12C = test system: SN12C
Malme-3M = test system: Malme-3M
LOX IMVI = test system: LOX IMVI
SK-MEL-5 = test system: SK-MEL-5
UO-31 = test system: UO-31
SK-MEL-2 = test system: SK-MEL-2
A498 = test system: A498
KM12 = test system: KM12
SF-268 = test system: SF-268
M19-MEL = test system: M19-MEL
SK-MEL-28 = test system: SK-MEL-28
RPMI-8226 = test system: RPMI-8226
K562 = test system: K562
RXF 393 = test system: RXF 393
HCT-15 = test system: HCT-15
OVCAR-5 = test system: OVCAR-5
SF-539 = test system: SF-539
LXFL 529 = test system: LXFL 529
M14 = test system: M14
ACHN = test system: ACHN
KM-20L2 = test system: KM-20L2
SR = test system: SR
786-0 = test system: 786-0
TK-10 = test system: TK-10

CC1(CO)C(O)CCC2(C)C1CCC1CC3CC12CCC3(O)CO (stereo not drawn) was tested, and the GI50 (EKVX) was > 64.6 µM (inactive), the GI50 (CAKI-1) was 3.15 µM (inactive) and the GI50 (SNB-19) was > 79.1 µM (inactive). The GI50 (IGROV-1) was > 100 µM (inactive), the GI50 (SW-620) was 9.75 µM (inactive) and the GI50 (HL-60) was 0.433 µM (active). The GI50 (HCC 2998) was 12.1 µM (inactive), the GI50 (SK-OV-3) was > 100 µM (inactive) and the GI50 (SNB-78) was > 100 µM (inactive). For the same molecule, the GI50 (UACC-257) was > 81.3 µM (inactive), the GI50 (U-251) was 4.53 µM (inactive) and the GI50 (SNB-75) was > 51.8 µM (inactive). The GI50 (HOP-62) was 1.04 µM (active), the GI50 (NCI-H226) was 21.2 µM (inactive) and the GI50 (COLO 205) was > 100 µM (inactive). For the same molecule, the GI50 (DMS-273) was 0.44 µM (active), the GI50 (DMS-114) was 2.34 µM (inactive) and the GI50 (OVCAR-3) was > 88.3 µM (inactive). The GI50 (SF-295) was 2.19 µM (inactive), the GI50 (UACC-62) was 0.789 µM (active) and the GI50 (MOLT-4) was 5.12 µM (inactive). For the same molecule, the GI50 (DLD-1) was > 100 µM (inactive), the GI50 (OVCAR-4) was > 100 µM (inactive) and the GI50 (MCF7) was 5.04 µM (inactive). For the same molecule, the GI50 (NCI/ADR-RES) was 6.67 µM (inactive), the GI50 (CCRF-CEM) was 2.84 µM (inactive) and the GI50 (HT-29) was 6.5 µM (inactive). The GI50 (HOP-92) was 24.8 µM (inactive), the GI50 (NCI-H522) was > 28.2 µM (inactive) and the GI50 (XF498) was 64.7 µM (inactive). For the same molecule, the GI50 (HOP-18) was 18.6 µM (inactive), the GI50 (NCI-H460) was 0.333 µM (active) and the GI50 (A549) was 2.71 µM (inactive). The GI50 (HCT-116) was 2.39 µM (inactive), the GI50 (OVCAR-8) was 4.84 µM (inactive) and the GI50 (NCI-H23) was 4.91 µM (inactive). The GI50 (SN12C) was 16.7 µM (inactive), the GI50 (Malme-3M) was > 76.2 µM (inactive) and the GI50 (LOX IMVI) was 4.72 µM (inactive). The GI50 (SK-MEL-5) was 5.83 µM (inactive), the GI50 (UO-31) was 25.3 µM (inactive) and the GI50 (SK-MEL-2) was > 100 µM (inactive). For the same molecule, the GI50 (A498) was 7.6 µM (inactive), the GI50 (KM12) was > 100 µM (inactive) and the GI50 (SF-268) was 8.36 µM (inactive). The GI50 (M19-MEL) was 26.2 µM (inactive), the GI50 (SK-MEL-28) was > 100 µM (inactive) and the GI50 (RPMI-8226) was 2.31 µM (inactive). For the same molecule, the GI50 (K562) was 14 µM (inactive), the GI50 (RXF 393) was 20 µM (inactive) and the GI50 (HCT-15) was > 24.8 µM. The GI50 (OVCAR-5) was > 36.9 µM (inactive) and the GI50 (SF-539) was 2.9 µM (inactive).

For CCOC(=O)C1S/C(=N\c2ccc(C)c(C)c2)N=C1C (stereo not drawn), the GI50 (EKVX) was > 100 µM (inactive), the GI50 (CAKI-1) was > 100 µM (inactive) and the GI50 (SNB-19) was > 100 µM (inactive). The GI50 (IGROV-1) was > 100 µM (inactive), the GI50 (SW-620) was > 100 µM (inactive) and the GI50 (HL-60) was 61 µM (inactive). For the same molecule, the GI50 (HCC 2998) was > 100 µM (inactive), the GI50 (LXFL 529) was > 100 µM (inactive) and the GI50 (SK-OV-3) was > 100 µM (inactive). The GI50 (UACC-257) was > 100 µM (inactive), the GI50 (U-251) was > 100 µM (inactive) and the GI50 (SNB-75) was 66.8 µM (inactive). For the same molecule, the GI50 (HOP-62) was > 100 µM (inactive), the GI50 (NCI-H226) was > 100 µM (inactive) and the GI50 (COLO 205) was > 100 µM (inactive). The GI50 (DMS-273) was > 100 µM (inactive), the GI50 (DMS-114) was > 100 µM (inactive) and the GI50 (OVCAR-3) was > 100 µM (inactive). For the same molecule, the GI50 (SF-295) was > 100 µM (inactive), the GI50 (UACC-62) was > 100 µM (inactive) and the GI50 (MOLT-4) was > 100 µM (inactive). For the same molecule, the GI50 (DLD-1) was > 100 µM (inactive), the GI50 (M14) was > 100 µM (inactive) and the GI50 (ACHN) was > 100 µM (inactive). For the same molecule, the GI50 (OVCAR-4) was > 100 µM (inactive), the GI50 (CCRF-CEM) was > 100 µM (inactive) and the GI50 (HT-29) was > 100 µM (inactive). The GI50 (HOP-92) was > 100 µM (inactive), the GI50 (KM-20L2) was > 100 µM (inactive) and the GI50 (NCI-H522) was > 100 µM (inactive). For the same molecule, the GI50 (XF498) was > 100 µM (inactive), the GI50 (HOP-18) was > 100 µM (inactive) and the GI50 (NCI-H460) was > 100 µM (inactive). For the same molecule, the GI50 (A549) was > 100 µM (inactive), the GI50 (SR) was > 100 µM (inactive) and the GI50 (OVCAR-8) was > 100 µM (inactive). For the same molecule, the GI50 (NCI-H23) was > 100 µM (inactive), the GI50 (SN12C) was > 100 µM (inactive) and the GI50 (Malme-3M) was > 100 µM (inactive). For the same molecule, the GI50 (LOX IMVI) was 75.2 µM (inactive), the GI50 (SK-MEL-5) was 52.7 µM (inactive) and the GI50 (UO-31) was > 100 µM (inactive). The GI50 (SK-MEL-2) was > 100 µM (inactive), the GI50 (A498) was > 100 µM (inactive) and the GI50 (KM12) was > 100 µM (inactive). The GI50 (SF-268) was > 100 µM (inactive), the GI50 (M19-MEL) was > 100 µM (inactive) and the GI50 (SK-MEL-28) was > 100 µM (inactive). The GI50 (786-0) was > 100 µM (inactive), the GI50 (RPMI-8226) was 85.7 µM (inactive) and the GI50 (K562) was 59.3 µM (inactive). The GI50 (HCT-15) was > 100 µM, the GI50 (OVCAR-5) was > 100 µM (inactive) and the GI50 (TK-10) was > 100 µM (inactive). For the same molecule, the GI50 (SF-539) was > 100 µM (inactive).
